From patent US20230310435A1, “HOST DEFENSE PROTEIN (HDP) MIMETICS FOR PROPHYLAXIS AND/OR TREATMENT OF INFLAMMATORY DISEASES OF THE GASTROINTESTINAL TRACT” (priority 2015, published 2023)
Several values for one entry are separate records, joined by “and”; a condition that tells them apart may be missing. Equal entries are not always repeated. Structures can show the parent of a compound that is named as a salt. Where two headings read alike, the source gives them in different places.

Assays:
DSS-induced colitis = assay: Dextran sulfate sodium (DSS)-induced acute colitis model; type: in vivo, male C57BL/6 mice
Description: The efficacy of brilacidin administered was investigated in a murine model of chemically-induced acute colitis using dextran sulfate sodium (DSS). This was a different in vivo model of IBD to the testing performed in Examples 16 and 17 (where mucosal injury was induced by using acetic acid). DSS-induced colitis in mice is characterized by weight loss, bloody diarrhea, intestinal ulcerations and infiltrations with granulocytes. In mice, DSS was administered from Day 0 to Day 11, as a 5% (w/v) DSS solution in the drinking water of male C57BL/6 mice (Kim J J, et al., J. Vis. Exp., 2012, 60, 3678), to induce severe murine colitis. On Days 7-11, test compound brilacidin (400 mg/kg) or positive control 5-ASA (50 mg/kg) or water (negative control) were administered as a solution, per rectum. On Days 6, 10 and 11, rectal bleeding was assessed using a Hemoccult® kit and stool consistency was visually assessed; severity of symptoms were scored on a scale of 0 (normal) to 4 (severe). Level of pro-inflammatory cytokines interleukin (IL)-6 and IL-1β in distal colon tissue were determined from excised colons using conventional ELISA methods.

human PDE3A = human PDE3A (Homo sapiens, UniProt Q14432); assay: PDE-Glo phosphodiesterase assay, PDE3; type: biochemical; settings: 2.75 ng PDE3A, 1 μM cAMP substrate, 15 min pre-incubation; read-out: IC50, inhibition of PDE3
human PDE3A, sequence (Q14432 whole entry): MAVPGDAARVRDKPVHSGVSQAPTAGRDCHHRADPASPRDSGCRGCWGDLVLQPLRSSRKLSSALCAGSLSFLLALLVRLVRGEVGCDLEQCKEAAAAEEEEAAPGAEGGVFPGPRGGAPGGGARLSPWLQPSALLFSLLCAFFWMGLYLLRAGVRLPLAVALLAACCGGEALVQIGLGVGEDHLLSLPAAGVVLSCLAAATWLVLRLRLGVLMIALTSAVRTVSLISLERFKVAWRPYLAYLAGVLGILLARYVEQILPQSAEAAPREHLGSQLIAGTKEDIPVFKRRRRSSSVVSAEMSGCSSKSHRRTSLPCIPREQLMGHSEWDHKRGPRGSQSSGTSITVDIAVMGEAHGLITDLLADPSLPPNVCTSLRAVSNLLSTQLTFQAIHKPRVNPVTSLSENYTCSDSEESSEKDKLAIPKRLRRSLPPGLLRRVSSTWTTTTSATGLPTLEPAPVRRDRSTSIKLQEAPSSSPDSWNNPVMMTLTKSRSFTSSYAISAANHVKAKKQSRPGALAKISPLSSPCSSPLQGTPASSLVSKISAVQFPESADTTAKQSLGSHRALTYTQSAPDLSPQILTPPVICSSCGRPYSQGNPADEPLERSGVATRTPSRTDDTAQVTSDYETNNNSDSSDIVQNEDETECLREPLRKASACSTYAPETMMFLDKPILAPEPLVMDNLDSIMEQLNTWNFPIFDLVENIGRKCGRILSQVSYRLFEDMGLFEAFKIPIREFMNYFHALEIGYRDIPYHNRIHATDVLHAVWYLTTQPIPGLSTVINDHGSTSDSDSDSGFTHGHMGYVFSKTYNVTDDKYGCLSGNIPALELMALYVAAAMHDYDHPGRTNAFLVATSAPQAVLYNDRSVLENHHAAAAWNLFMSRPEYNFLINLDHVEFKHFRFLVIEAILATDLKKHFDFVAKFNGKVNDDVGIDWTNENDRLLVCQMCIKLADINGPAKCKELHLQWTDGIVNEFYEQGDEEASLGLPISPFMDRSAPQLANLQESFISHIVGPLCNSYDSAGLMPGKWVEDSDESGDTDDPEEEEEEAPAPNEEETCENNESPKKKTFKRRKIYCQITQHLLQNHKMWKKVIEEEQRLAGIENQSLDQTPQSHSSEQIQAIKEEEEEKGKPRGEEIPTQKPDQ
Description: Method for FIG. 3. […] The compounds and PDE3A were mixed and pre-incubated at room temperature for 15 minutes. Substrate was added and the reaction was incubated for 7 minutes at room temperature. Data are presented as luminescence units (RLU).
Method for FIG. 4. Phosphodiesterase inhibition assays of PDE3 were performed using PMX-60056. The PDE-Glo phosphodiesterase assay (Promega, Madison, WI, USA Catalog No. V1361) was performed according to manufacturer's instruction using 2.75 ng of PDE3A, 1 μM cAMP substrate and PMX60056. The compounds and PDE3A were mixed and pre-incubated at room temperature for 15 minutes. Substrate was added and the reaction was incubated for 7 minutes at room temperature. Data are presented as luminescence units (RLU).
The compounds and PDE3A were mixed and pre-incubated at room temperature for 15 minutes. Substrate was added and the reaction was incubated. […]
(§1) PDE4 and PDE3 inhibition results in subsequent down-regulation of pro-inflammatory cytokines/chemokines and its regulators, and experiments were conducted to confirm such down-regulation by brilacidin in ex vivo cell-based assays. In these assays, cells were exposed to brilacidin 45 minutes before an 8-hour lipopolysaccharide (LPS) stimulation in the presence of brilacidin; cytokine/enzyme concentrations were determined by ELISA using a standard immunoassay kit.

[1] = test system: LPS-induced CINC-3 release, NR8383 cells; assay: LPS-induced CINC-3 (CXCL2) release in NR8383 rat alveolar macrophages (ELISA); type: cell-based; settings: Macrophage, 8-hour brilacidin and LPS exposure, read-out: IC50, inhibition of LPS-induced CINC-3 release
Description: To examine the effect of brilacidin on production in cells of cytokine-induced neutrophil chemoattractant-3 (CINC-3; CXCL2), rat alveolar macrophage (NR8383) cells were pretreated with a range of brilacidin concentrations for 45 minutes, followed by treatment with 1 μg/ml LPS from E. coli (Sigma, St. Louis, MO) for 8 hours in the presence of brilacidin. After 8 hours, supernatants were collected for CINC-3 measurement by ELISA. CINC-3 was measured using an immunoassay kit according to manufacturer's instructions (R&D Systems, Minneapolis, MN).
as §1

in vivo = assay: in vivo; parameters: species or system male Balb/c mice; settings: mouse, 10 mg/kg
Description: Method for FIG. 12. […] The small intestine with content of each animal for were harvested and placed per animal per tissue into a tube. The small intestine with content samples were snap frozen in dry ice and then stored at −80° C. until bioanalysis. All the samples were labeled with detailed information such as study number, animal number, matrix, and time points of collection and date of collection. In addition, the extra animals obtained for the study, but not placed on study were used for collection of small intestine with content. The resulting small intestine with content samples were then applied to the development of the bioanalytical method and sample bioanalysis in this study. Bioanalytical analysis was performed on samples by LC-MS/MS.
For analyzing the contents of the small intestine, small intestine samples were homogenized by adding saline (1 g small intestine: 5 mL saline). Small intestine homogenates (50 μL) were transferred to tubes and 250 μL internal standard (IS) working solution (50 ng/mL Carvedilol) was added to each sample. After vortexing for 1 minute and centrifuging for 5 minutes at 15,000 rpm, 100 μL aliquots of supernatant were transferred to glass autosampler vials.
Method for FIG. 13. […] The ratios versus time are shown.
At 1 hour, the concentration in the small intestine peaked at 38,941±4703 ng/gram of tissue (FIG. 12).

[2] = test system: acetic acid-induced colitis; type: in vivo; settings: for reduction of UC score: not significantly
Description: (§2) Method for FIG. 14. […] Balb/c mice were fasted for 24 hours. Colitis was induced by injecting 200 μL of 4% acetic acid into the rectum. […] Another group of animals were treated with 5-ASA (5-aminosalicylic acid or mesalamine), and another received no treatment. Seven days after the first dose, five cm of intestine were cleaned in cold saline then weighed.
as §2, with “15.” for “14.”, “dose the colon was examined visually for mucosal injury and scored according to the Table below.” for “dose, five cm of intestine were cleaned in cold saline then weighed.”
Briefly, colitis was induced by injecting 4% acetic acid into the rectum.

[3] = by Day 11, brilacidin 400 mg/kg per rectum Days 7-11, p<0.001
[4] = end of study, brilacidin 400 mg/kg or 5-ASA 50 mg/kg per rectum Days 7-11

In the case of `N=C(N)NCCCCC(=O)Nc1cc(C(F)(F)F)cc(NC(=O)c2cc(C(=O)Nc3cc(C(F)(F)F)cc(NC(=O)CCCCNC(=N)N)c3O[C@@H]3CCNC3)ncn2)c1O[C@@H]1CCNC1` [PMX-30063, N^4,N^6-bis(2-((R)-pyrrolidin-3-yloxy)-3-((4-carbamoylbutyl)guanidine)-5-(trifluoromethyl)phenyl)pyrimidine-4,6-dicarboxamide tetrahydrochloride salt], the “rectal bleeding score compared to DSS-treated control (in words)” value (DSS-induced colitis; [3]) is reported as “significant decrease”, the “stool consistency compared to DSS-treated control (in words)” value (DSS-induced colitis; [3]) is reported as “significantly more firm” and the “mean reduction in IL-1β in distal colon tissue compared to DSS-treated control group” value (DSS-induced colitis; [4]) is reported as 27%. The “mean reduction in IL-6 in distal colon tissue compared to DSS-treated control group” value (DSS-induced colitis; [4]) was 40%, the IC50 (human PDE3A) was ~1.8 µM and 1.8 µM and the IC50 [1] was 0.425 µM. For the same compound, the “total exposure (AUC) in the blood upon oral administration” value (in vivo; male, Balb/c) was “less than 0.5%”, the Cmax (in vivo; male, Balb/c, po) was 38900 ng/g and the Kp (in vivo; male, Balb/c, po) was 2240 to 4320. For the same compound, the Tmax (in vivo; male, Balb/c, po) was 60 min, the half-life (in vivo; male, Balb/c, po) was 47.4 min and the “AUC(0-t)” value (in vivo; po) was 86089 ng·h/g. The “AUC(0-∞)” value (in vivo; po) was 89525 ng·h/g, the “MRT(0-∞)” value (in vivo; po) was 1.52 H and the “reduction of UC score” value ([2]; 40 mg/kg (so in the source) intrarectally) was 67%. For the same compound, the “reduction of median UC score” value ([2]; 100 mg/kg intrarectally) was 33%, the “reduction of UC score” value ([2]; 200 mg/kg intrarectally) was 67% and the “reduction of intestine weights compared to untreated controls” value ([2]; 400 mg/kg intrarectally) was 17%. The “ulcerative colitis score compared to untreated controls (in words)” value ([2]; 400 mg/kg intrarectally) was “significantly reduced”, the “tolerability (in words)” value ([2]; mouse, in vivo) was “well-tolerated” and the “ulcerative colitis score (in words)” value ([2]; rectal administration, 100, 200, 400 mg/kg) was “dose dependent decrease”. The “intestine weights compared to untreated controls (in words)” value ([2]; rectal administration, 100-400 mg/kg once daily) was “reduced, but not significantly”.
